Results as given in US20090110718A1, “Derivatives of tiacumicin B as anti-cancer agents” (Echem Hightech Co., Ltd., priority 2007, published 2009).

Columns and labels:
Format in all cases: cell-based, human
[1] = system: MCF7 breast cancer cells; assay: Cell viability assay (MTT), MCF7; details: for IC50: 72 hrs treatment, 1 to 10 μM tested, MTT, ± SD, read-out: Observed IC50 for MCF7 breast cancer cells
Method: (§1) Experiments were performed using different cancer cell-lines, which were supplied by the American Type Culture Collection (ATCC), Rockville, Md., USA, and maintained in the recommended culturing media. The detailed steps and condition for cell culture are described as the following: MCF7, human breast adenocarcinoma: Minimum essential medium (Eagle) with 2 mM L-glutamine and Earle's BSS adjusted to contain 1.5 g/L sodium bicarbonate, 0.1 mM non-essential amino acids and 1.0 mM sodium pyruvate and supplemented with 0.01 mg/ml insulin, 90%; fetal bovine serum, 10%. […] All test samples were dissolved in absolute ethanol and serial diluted to the testing concentrations. For blank sample, absoluted ethanol was used. The final organic solvent content for all cell assays were less than or equal to 0.1%. The cell viability assay was conducted by using the method described by J. Carmichael, et al in Cancer Research 47:936 (1987). All the cells were seeded into 96-well microtitre plates and incubated at 37° C. under 5% CO2 atmosphere. For MCF7, T-47D and WS1, 3000 cells/100 μl/well were used and for HeLa, 1000 cells/100 μl/well were used. […] After additional 72 hours of incubation at 37° C. under 5% CO2 atmosphere, the cell were then collected and evaluated using MTT assay to assess the cell viability by using the method mentioned above. […] Cultures containing 3000 cells per well were treated with 0, 1, 2.5, 5 and 10 μM (final concentration) of the test samples and the viable cells were counted after 72 hrs. […] In both FIG. 1 and FIG. 2, error bars are indicated the estimated standard deviation based on three experiments.

[2] = system: T-47D breast cancer cells; assay: Cell viability assay (MTT), T-47D; details: 72 hrs treatment, 1 to 10 μM tested, ± SD, read-out: Observed IC50 for T-47D breast cancer cells
Method: as §1, with “media.” for “media. The detailed steps and condition for cell culture are described as the following: MCF7, human breast adenocarcinoma: Minimum essential medium (Eagle) with 2 mM L-glutamine and Earle's BSS adjusted to contain 1.5 g/L sodium bicarbonate, 0.1 mM non-essential amino acids and 1.0 mM sodium pyruvate and supplemented with 0.01 mg/ml insulin, 90%; fetal bovine serum, 10%.”

[3] = system: HeLa cervical cancer cells; assay: Cell viability assay (MTT), HeLa; details: for IC50: 72 hrs treatment, 1 to 10 μM tested, MTT, ± SD, read-out: Observed IC50 for HeLa cervial cancer cells
Method: Experiments were performed using different cancer cell-lines, which were supplied by the American Type Culture Collection (ATCC), Rockville, Md., USA, and maintained in the recommended culturing media. The detailed steps and condition for cell culture are described as the following: HeLa, humen cervical adenocarcinoma: Minimum essential medium (Eagle) with 2 mM L-glutamine and Earle's BSS adjusted to contain 1.5 g/L sodium bicarbonate, 0.1 mM non-essential amino acids and 1.0 mM sodium pyruvate and supplemented with 0.01 mg/ml insulin, 90%; fetal bovine serum, 10%. […] All test samples were dissolved in absolute ethanol and serial diluted to the testing concentrations. For blank sample, absoluted ethanol was used. The final organic solvent content for all cell assays were less than or equal to 0.1%. The cell viability assay was conducted by using the method described by J. Carmichael, et al in Cancer Research 47:936 (1987). All the cells were seeded into 96-well microtitre plates and incubated at 37° C. under 5% CO2 atmosphere. For MCF7, T-47D and WS1, 3000 cells/100 μl/well were used and for HeLa, 1000 cells/100 μl/well were used. […] After additional 72 hours of incubation at 37° C. under 5% CO2 atmosphere, the cell were then collected and evaluated using MTT assay to assess the cell viability by using the method mentioned above. Error bars are indicated the estimated standard deviation based on three experiments.

IC50 [1] [µM]	IC50 [2] [µM]	IC50 [3] [µM]	Molecule	IC50 value compared with tamoxifen, MCF7 ([1]; statement in words)	IC50 value compared with tamoxifen, HeLa ([3]; statement in words)
7.06 ± 0.83	3.99 ± 0.58	5.88 ± 0.42	CCc1c(Cl)c(O)c(Cl)c(O)c1C(=O)O[C@@H]1[C@@H](O)[C@@H](OC)[C@@H](OC/C2=C\C=C\CC(O)/C(C)=C/C(CC)C(O[C@@H]3OC(C)(C)[C@H]4OC(c5ccccc5C)O[C@@H]4[C@@H]3OC(=O)C(C)C)/C(C)=C/C(C)=C/CC(C(C)O)OC2=O)O[C@H]1C (some centres unmarked) [TB1, 2-methylbenzylidene acetal]	–	–
7.09 ± 0.54	4.99 ± 0.22	5.99 ± 0.45	CCc1c(Cl)c(O)c(Cl)c(O)c1C(=O)O[C@@H]1[C@@H](O)[C@@H](OC)[C@@H](OC/C2=C\C=C\CC(O)/C(C)=C/C(CC)C(O[C@@H]3OC(C)(C)[C@H]4OC(c5cccc(OC)c5)O[C@@H]4[C@@H]3OC(=O)C(C)C)/C(C)=C/C(C)=C/CC(C(C)O)OC2=O)O[C@H]1C (some centres unmarked) [TB3, 3-methoxylbenzylidene acetal]	–	–
6.81 ± 0.01	5.66 ± 0.62	5.69 ± 0.24	CCc1c(Cl)c(O)c(Cl)c(O)c1C(=O)O[C@@H]1[C@@H](O)[C@@H](OC)[C@@H](OC/C2=C\C=C\CC(O)/C(C)=C/C(CC)C(O[C@@H]3OC(C)(C)[C@H]4OC(c5ccccc5Cl)O[C@@H]4[C@@H]3OC(=O)C(C)C)/C(C)=C/C(C)=C/CC(C(C)O)OC2=O)O[C@H]1C (some centres unmarked) [TB4, 2-chlorobenzylidene acetal]	–	–
5.95 ± 0.46	4.66 ± 0.57	5.6 ± 0.37	CCc1c(Cl)c(O)c(Cl)c(O)c1C(=O)O[C@@H]1[C@@H](O)[C@@H](OC)[C@@H](OC/C2=C\C=C\CC(O)/C(C)=C/C(CC)C(O[C@@H]3OC(C)(C)[C@H]4OC(c5ccccc5C(F)(F)F)O[C@@H]4[C@@H]3OC(=O)C(C)C)/C(C)=C/C(C)=C/CC(C(C)O)OC2=O)O[C@H]1C (some centres unmarked) [TB5, 2-trifluoromethylbenzylidene acetal]	–	–
6.19 ± 0.68	4.8 ± 0.46	5.3 ± 0.49	CCc1c(Cl)c(O)c(Cl)c(O)c1C(=O)O[C@@H]1[C@@H](O)[C@@H](OC)[C@@H](OC/C2=C\C=C\CC(O)/C(C)=C/C(CC)C(O[C@@H]3OC(C)(C)[C@H]4OC(c5ccc(N(CC)CC)cc5OC)O[C@@H]4[C@@H]3OC(=O)C(C)C)/C(C)=C/C(C)=C/CC(C(C)O)OC2=O)O[C@H]1C (some centres unmarked) [TB7, 4-N,N-diethylamino-2-methoxybenzylidene acetal]	–	–
5.78 ± 0.81	4.04 ± 1.09	5.76 ± 0.32	CCc1c(Cl)c(O)c(Cl)c(O)c1C(=O)O[C@@H]1[C@@H](O)[C@@H](OC)[C@@H](OC/C2=C\C=C\CC(O)/C(C)=C/C(CC)C(O[C@@H]3OC(C)(C)[C@H]4OC(c5cc(C(C)(C)C)c(O)c(C(C)(C)C)c5)O[C@@H]4[C@@H]3OC(=O)C(C)C)/C(C)=C/C(C)=C/CC(C(C)O)OC2=O)O[C@H]1C (some centres unmarked) [TB8, 4,5-tert-dibutyl-4-hydroxybenzylidene acetal]	–	–
8.39 ± 1	5.56 ± 0.57	8.54 ± 1.03	tiacumicin B [tiacumicin B (TB), reference compound]	–	–

Molecule	IC50 [1] [µM]	IC50 [2] [µM]	IC50 [3] [µM]	IC50 value compared with tamoxifen, MCF7 ([1]; statement in words)	IC50 value compared with tamoxifen, HeLa ([3]; statement in words)
CCc1c(Cl)c(O)c(Cl)c(O)c1C(=O)O[C@@H]1[C@@H](O)[C@@H](OC)[C@@H](OC/C2=C\C=C\CC(O)/C(C)=C/C(CC)C(O[C@@H]3OC(C)(C)[C@H]4OC(c5cccc(O)c5)O[C@@H]4[C@@H]3OC(=O)C(C)C)/C(C)=C/C(C)=C/CC(C(C)O)OC2=O)O[C@H]1C (some centres unmarked) [TB2, 3-hydroxylbenzylidene acetal]	6.9 ± 0.36	4.24 ± 0.05	5.98 ± 0.22	superior to that of tamoxifen	–
CCc1c(Cl)c(O)c(Cl)c(O)c1C(=O)O[C@@H]1[C@@H](O)[C@@H](OC)[C@@H](OC/C2=C\C=C\CC(O)/C(C)=C/C(CC)C(O[C@@H]3OC(C)(C)[C@H]4OC(c5ccc(N(CC)CC)cc5)O[C@@H]4[C@@H]3OC(=O)C(C)C)/C(C)=C/C(C)=C/CC(C(C)O)OC2=O)O[C@H]1C (some centres unmarked) [TB6, 4-N,N-diethylaminobenzylidene acetal]	5.98 ± 0.54	4.77 ± 0.51	5.56 ± 0.13	–	superior to that of tanoxifen
